From US10544106B2, “Certain chemical entities, compositions, and methods” (NeuPharma, Inc., priority 2016, dated 2020)

Experiments:
EGFR (ErbB1) L858R = EGFR (ErbB1) L858R (Homo sapiens (Human), UniProt P00533, L858R); experiment: Z'-LYTE kinase inhibition assay against EGFR L858R; format: biochemical; details: compound at 100 nM; ATP concentration at Km
Method: (§1) Inhibitory activities of compounds against BTK, EGFR T790M, EGFR L858R, and EGFR L858R/T790M were measured using Z′-LYTE® Method from Life Technologies as briefly described in the following.
(§2) Test Compounds are screened in 1% DMSO (final) in the well. For 10 point titrations, 3-fold serial dilutions are conducted from the starting concentration. All ATP Solutions are diluted to a 4× working concentration in Kinase Buffer (50 mM HEPES pH 7.5, 0.01% BRIJ-35, 10 mM MgCl2, 1 mM EGTA). Peptide/Kinase Mixtures are diluted to a 2× working concentration in the appropriate Kinase Buffers as described below. • (i) Peptide/Kinase Mixtures for measurement of EGFR (ErbB1) L858R: • The 2×EGFR (ErbB1) L858R/Tyr 04 mixture is prepared in 50 mM HEPES pH 7.5, 0.01% BRIJ-35, 10 mM MgCl2, 4 mM MnCl2. 1 mM EGTA, 2 mM DTT. The final 10 μL Kinase Reaction consists of 0.2-1.68 ng EGFR (ErbB1) L858R and 2 μM Tyr 04 in 50 mM HEPES pH 7.5, 0.01% BRIJ-35, 10 mM MgCl2, 2 mM MnCl2, 1 mM EGTA, 1 mM DTT. After the 1 hour Kinase Reaction incubation, 5 μL of a 1:64 dilution of Development Reagent B is added. • (ii) Peptide/Kinase Mixtures for measurement of EGFR (ErbB1) T790M: The 2×EGFR (ErbB1) T790M/Tyr 04 mixture is prepared in 50 mM HEPES pH 6.5, 0.01% BRIJ-35, 10 mM MgCl2, 1 mM EGTA, 0.02% NaN3. The final 10 μL Kinase Reaction consists of 3.9-30.2 ng EGFR (ErbB1) T790M and 2 μM Tyr 04 in 50 mM HEPES pH 7.0, 0.01% BRIJ-35, 10 mM MgCl2, 1 mM EGTA, 0.01% NaN3. After the 1 hour Kinase Reaction incubation, 5 μL of a 1:64 dilution of Development Reagent B is added. • (iii) Peptide/Kinase Mixtures for measurement of EGFR (ErbB1) L858R/T790M: The 2×EGFR (ErbB1) T790M L858R/Tyr 04 mixture is prepared in 50 mM HEPES pH 6.5, 0.01% BRIJ-35, 10 mM MgCl2, 1 mM EGTA, 0.02% NaN3. The final 10 μL Kinase Reaction consists of 0.38-4.22 ng EGFR (ErbB1) T790M L858R and 2 μM Tyr 04 in 50 mM HEPES pH 7.0, 0.01% BRIJ-35, 10 mM MgCl2, 1 mM EGTA, 0.01% NaN3. After the 1 hour Kinase Reaction incubation, 5 μL of a 1:64 dilution of Development Reagent B is added. • (iv) Peptide/Kinase Mixtures for measurement of BTK: The 2×BTK/Tyr 01 mixture is prepared in 50 mM HEPES pH 7.5, 0.010/BRIJ-35, 10 mM MgCl2, 1 mM EGTA. The final 10 μL Kinase Reaction consists of 1.04-10.4 ng BTK and 2 μM Tyr 01 in 50 mM HEPES pH 7.5, 0.01% BRIJ-35, 10 mM MgCl2, 1 mM EGTA. After the 1 hour Kinase Reaction incubation, 5 μL of a 1:256 dilution of Development Reagent B is added.
(§3) Reaction starts by 30-second shaking of mixture consisting of 2.5 μL 4× test compound, 5 μL 2× kinase reaction mixture and 2.5 μL 4×ATP Solution on Bar-coded Corning, low volume NBS, black 384-well plate (Corning Cat. #3676). Then the mixture is incubated for 60-minute at room temperature for the kinase reaction, followed by addition of 5 μL of a 1:1024 dilution of development reagent A and 30-second plate shake. The mixture is then incubated for another 60-minute at room temperature for development reaction. Finally fluorescence is read by plate reader.
(§4) The Z′-LYTE assay was carried out with ATP concentration at Km. The scale utilized in Tables 2-6 is as follows: ++ more than 50% inhibition and + less than 50% inhibition.

BTK = BTK (Homo sapiens (Human), UniProt Q06187); experiment: Z'-LYTE kinase inhibition assay against BTK; format: biochemical; details: for inhibition at 0.1 µM: compound at 100 nM, ATP concentration at Km; for IC50: series of concentrations, GraphPad Prism 5
Outline: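 Z′-LYTE FRET readout: 1.04-10.4 ng BTK with 2 μM Tyr 01 peptide, ATP at Km, in 50 mM HEPES pH 7.5, 10 mM MgCl2, 1 mM EGTA, 0.01% BRIJ-35, 1% DMSO. 60 min kinase reaction at room temperature, then 60 min development; IC50 from 10-point, 3-fold titrations.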

EGFR del746_750 = EGFR del746_750 (Homo sapiens (Human), UniProt P00533, DEL746-750); experiment: SelectScreen Lantha method (Eu-anti-GST antibody/tracer) for EGFR del746_750; format: binding; details: compound at 100 nM; read-out: % Inhibition against EGFR del745_750
Method: SelecteScreen's Lantha® method from Life Technologies was used to measure compound's activities in inhibition of EGFR del746_750.
Test Compounds are screened in 1% DMSO (final) in the well. For 10 point titrations, 3-fold serial dilutions are conducted from the starting concentration. • Components for EGFR del745_750: • Kinase Buffer A: 50 mM HEPES pH 7.5, 0.01% BRIJ-35, 10 mM MgCl2, 1 mM EGTA • Kinase/Antibody Mixtures for EGFR del745_ 750: EGFR del745_ 750 10 nM, Antibody: Eu-anti-GST 2 nM, Tracer 199 10 nM, Inhibitor: SB202190 88.2 nM, All Kinase/Antibody Mixtures are diluted to a 2× working concentration in the appropriate Kinase Buffer • Tracer: The 4× AlexaFluor® labeled Tracer is prepared in Kinase Buffer.
To start the measurement, the following components are added to individual wells of bar-coded, low volume, white 384-well plate (Greiner Cat. #784207): • 1. 160 nL—100× Test Compound in 100% DMSO. • 2. 3.84 μL—Kinase Buffer: • 3. 8.0 μL—2× Kinase/Antibody Mixture • 4. 4.0 μL—4× Tracer The mixture above is then shaken for 30-second following by 60-minute incubation at room temperature. Finally the plate is read on fluorescence plate reader.
as §4

EGFR (ErbB1) T790M = EGFR (ErbB1) T790M (Homo sapiens (Human), UniProt P00533, T790M); experiment: Z'-LYTE kinase inhibition assay against EGFR T790M; format: biochemical; details: compound at 100 nM; ATP concentration at Km
Method: as §1, §2, §3, §4

EGFR (ErbB1) L858R/T790M = EGFR (ErbB1) L858R/T790M (Homo sapiens (Human), UniProt P00533, L858R/T790M); experiment: Z'-LYTE kinase inhibition assay against EGFR L858R/T790M; format: biochemical; details: compound at 100 nM; ATP concentration at Km
Method: as §1, §2, §3, §4

Chain of EGFR del746_750 (P00533 other isoform, or with tags, fused parts or gaps del E746-A750): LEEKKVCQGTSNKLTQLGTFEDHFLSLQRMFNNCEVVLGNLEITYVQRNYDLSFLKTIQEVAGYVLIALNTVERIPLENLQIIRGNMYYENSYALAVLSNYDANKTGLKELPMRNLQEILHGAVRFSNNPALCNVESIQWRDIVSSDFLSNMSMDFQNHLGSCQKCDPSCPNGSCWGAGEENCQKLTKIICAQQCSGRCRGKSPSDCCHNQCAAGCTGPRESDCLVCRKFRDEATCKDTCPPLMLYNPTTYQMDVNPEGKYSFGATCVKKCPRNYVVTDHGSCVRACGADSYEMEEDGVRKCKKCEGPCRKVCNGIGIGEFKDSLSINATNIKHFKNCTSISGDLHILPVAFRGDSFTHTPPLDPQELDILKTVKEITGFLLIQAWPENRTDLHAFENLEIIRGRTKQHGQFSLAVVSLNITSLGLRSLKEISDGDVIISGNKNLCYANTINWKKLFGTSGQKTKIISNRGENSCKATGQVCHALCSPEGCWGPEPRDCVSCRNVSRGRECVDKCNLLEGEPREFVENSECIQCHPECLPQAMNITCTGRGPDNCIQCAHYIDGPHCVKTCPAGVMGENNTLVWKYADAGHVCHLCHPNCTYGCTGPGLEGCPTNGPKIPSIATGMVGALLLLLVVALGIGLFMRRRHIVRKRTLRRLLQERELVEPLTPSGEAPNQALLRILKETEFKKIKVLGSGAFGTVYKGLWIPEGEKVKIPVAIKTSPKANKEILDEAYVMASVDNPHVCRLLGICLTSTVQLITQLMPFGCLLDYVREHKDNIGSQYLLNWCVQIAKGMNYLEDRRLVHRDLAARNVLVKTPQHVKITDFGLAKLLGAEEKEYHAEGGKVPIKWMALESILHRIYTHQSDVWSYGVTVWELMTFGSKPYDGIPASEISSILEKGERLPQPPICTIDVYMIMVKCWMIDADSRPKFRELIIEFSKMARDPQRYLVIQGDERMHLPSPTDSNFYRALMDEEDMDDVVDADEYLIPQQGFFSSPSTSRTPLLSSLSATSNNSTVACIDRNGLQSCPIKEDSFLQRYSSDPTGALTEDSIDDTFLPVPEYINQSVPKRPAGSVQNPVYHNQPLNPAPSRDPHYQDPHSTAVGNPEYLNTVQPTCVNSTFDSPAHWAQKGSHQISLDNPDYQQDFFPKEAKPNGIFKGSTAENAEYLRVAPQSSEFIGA
Chain of EGFR (ErbB1) L858R/T790M (P00533 25-1210 T790M/L858R): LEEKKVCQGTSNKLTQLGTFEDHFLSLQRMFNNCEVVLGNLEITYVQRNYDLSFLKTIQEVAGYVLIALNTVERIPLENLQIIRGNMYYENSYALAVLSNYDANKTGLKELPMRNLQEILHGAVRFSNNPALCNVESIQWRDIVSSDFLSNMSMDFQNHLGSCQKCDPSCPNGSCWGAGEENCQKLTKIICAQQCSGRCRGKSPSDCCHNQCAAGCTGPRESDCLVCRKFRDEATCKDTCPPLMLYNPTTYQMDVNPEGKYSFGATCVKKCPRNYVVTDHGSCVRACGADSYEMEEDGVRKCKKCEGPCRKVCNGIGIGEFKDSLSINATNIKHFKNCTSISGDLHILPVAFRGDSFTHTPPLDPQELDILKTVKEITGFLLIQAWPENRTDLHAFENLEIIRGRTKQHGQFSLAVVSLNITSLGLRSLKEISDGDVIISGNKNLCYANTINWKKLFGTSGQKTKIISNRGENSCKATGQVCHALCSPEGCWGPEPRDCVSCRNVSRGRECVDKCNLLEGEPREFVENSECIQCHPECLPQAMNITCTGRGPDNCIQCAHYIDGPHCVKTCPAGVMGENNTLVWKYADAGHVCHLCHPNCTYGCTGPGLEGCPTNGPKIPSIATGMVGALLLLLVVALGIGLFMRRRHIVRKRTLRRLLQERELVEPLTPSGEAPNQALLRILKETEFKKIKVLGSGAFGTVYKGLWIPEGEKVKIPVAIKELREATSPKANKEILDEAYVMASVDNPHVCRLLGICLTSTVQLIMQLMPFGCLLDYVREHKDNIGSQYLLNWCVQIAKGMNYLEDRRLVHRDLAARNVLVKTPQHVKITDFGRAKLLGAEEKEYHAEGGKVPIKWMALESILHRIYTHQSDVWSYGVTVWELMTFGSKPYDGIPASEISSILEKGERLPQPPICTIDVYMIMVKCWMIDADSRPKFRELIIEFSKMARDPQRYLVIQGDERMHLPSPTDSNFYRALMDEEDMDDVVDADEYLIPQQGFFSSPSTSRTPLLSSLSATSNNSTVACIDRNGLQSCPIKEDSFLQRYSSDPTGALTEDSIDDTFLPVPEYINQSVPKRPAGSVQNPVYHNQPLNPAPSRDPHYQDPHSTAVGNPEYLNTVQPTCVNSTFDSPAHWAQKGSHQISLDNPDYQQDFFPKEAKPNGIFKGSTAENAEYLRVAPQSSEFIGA
Chain of EGFR (ErbB1) L858R (P00533 25-1210 L858R): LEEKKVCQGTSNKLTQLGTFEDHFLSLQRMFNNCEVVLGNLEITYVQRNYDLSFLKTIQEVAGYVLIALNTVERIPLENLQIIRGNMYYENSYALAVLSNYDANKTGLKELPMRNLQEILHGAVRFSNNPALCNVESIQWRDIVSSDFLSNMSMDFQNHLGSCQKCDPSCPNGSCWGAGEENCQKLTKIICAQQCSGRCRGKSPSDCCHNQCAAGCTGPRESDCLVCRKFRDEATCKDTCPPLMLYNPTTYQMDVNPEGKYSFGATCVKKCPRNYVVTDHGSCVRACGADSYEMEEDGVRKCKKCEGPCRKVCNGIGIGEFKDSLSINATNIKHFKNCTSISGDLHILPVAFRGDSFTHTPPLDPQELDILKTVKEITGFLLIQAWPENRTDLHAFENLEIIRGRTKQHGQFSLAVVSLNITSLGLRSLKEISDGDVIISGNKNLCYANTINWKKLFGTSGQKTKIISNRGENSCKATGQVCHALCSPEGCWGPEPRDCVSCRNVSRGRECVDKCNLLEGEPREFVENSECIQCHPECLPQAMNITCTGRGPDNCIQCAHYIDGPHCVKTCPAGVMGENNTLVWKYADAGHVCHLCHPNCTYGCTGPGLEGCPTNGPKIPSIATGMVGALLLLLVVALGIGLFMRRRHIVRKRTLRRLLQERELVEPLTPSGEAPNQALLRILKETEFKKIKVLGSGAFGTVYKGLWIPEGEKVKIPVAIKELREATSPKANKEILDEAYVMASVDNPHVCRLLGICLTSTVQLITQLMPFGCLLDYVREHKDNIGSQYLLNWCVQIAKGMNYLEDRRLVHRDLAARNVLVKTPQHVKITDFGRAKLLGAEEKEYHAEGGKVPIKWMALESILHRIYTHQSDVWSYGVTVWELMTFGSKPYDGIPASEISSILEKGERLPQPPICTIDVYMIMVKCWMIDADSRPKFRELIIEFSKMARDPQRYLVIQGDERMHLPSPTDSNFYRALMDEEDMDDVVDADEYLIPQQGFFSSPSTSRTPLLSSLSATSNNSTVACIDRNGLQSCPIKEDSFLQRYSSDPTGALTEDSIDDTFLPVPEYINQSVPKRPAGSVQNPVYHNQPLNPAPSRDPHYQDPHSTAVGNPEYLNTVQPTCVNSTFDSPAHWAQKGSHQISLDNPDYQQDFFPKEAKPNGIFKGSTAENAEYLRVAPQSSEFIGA
Chain of EGFR (ErbB1) T790M (P00533 25-1210 T790M): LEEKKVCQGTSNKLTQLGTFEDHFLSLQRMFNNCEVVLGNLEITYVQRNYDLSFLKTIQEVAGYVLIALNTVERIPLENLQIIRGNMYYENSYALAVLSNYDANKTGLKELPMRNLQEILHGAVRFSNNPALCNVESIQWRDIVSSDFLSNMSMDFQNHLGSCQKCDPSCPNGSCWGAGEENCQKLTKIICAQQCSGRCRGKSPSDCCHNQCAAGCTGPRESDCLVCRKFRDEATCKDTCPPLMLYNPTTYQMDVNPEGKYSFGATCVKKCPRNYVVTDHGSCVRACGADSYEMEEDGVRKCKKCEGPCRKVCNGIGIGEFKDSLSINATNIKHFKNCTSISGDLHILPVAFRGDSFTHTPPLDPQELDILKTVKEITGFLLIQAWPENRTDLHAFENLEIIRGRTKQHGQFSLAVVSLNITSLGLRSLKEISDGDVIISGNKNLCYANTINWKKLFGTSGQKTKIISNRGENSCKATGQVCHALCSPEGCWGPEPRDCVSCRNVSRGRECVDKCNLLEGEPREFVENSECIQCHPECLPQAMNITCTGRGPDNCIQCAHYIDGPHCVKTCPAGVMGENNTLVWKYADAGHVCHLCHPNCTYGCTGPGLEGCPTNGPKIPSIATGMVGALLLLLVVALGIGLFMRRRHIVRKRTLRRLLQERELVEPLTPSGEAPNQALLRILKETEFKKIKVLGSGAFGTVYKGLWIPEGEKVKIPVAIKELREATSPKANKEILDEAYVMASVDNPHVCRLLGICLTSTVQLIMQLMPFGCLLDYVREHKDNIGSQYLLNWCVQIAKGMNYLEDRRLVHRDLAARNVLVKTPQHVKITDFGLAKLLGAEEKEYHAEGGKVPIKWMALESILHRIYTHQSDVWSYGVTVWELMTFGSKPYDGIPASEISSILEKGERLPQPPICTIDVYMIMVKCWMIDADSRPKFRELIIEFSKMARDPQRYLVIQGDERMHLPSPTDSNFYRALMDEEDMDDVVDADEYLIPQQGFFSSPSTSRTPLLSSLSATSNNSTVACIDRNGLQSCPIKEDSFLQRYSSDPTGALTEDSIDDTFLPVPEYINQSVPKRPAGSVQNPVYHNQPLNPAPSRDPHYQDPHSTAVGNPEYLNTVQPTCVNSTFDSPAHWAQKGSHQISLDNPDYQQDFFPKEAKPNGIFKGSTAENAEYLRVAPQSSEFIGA

| SMILES | inhibition at 0.1 µM (EGFR (ErbB1) L858R) [%] | inhibition at 0.1 µM (BTK) [%] | IC50 (BTK) [nM] | inhibition at 0.1 µM (EGFR del746_750) [%] | inhibition at 0.1 µM (EGFR (ErbB1) T790M) [%] | inhibition at 0.1 µM (EGFR (ErbB1) L858R/T790M) [%] |
| --- | --- | --- | --- | --- | --- | --- |
| C=CC(=O)Nc1cccc(-c2cc(-c3cccc(F)c3)cc3cncnc23)c1 [C073, N-(3-(6-(3-fluorophenyl)quinazolin-8-yl)phenyl)acrylamide] | > 50 | > 50 | < 100 | > 50 | < 50 | < 50 |
| C=CC(=O)Nc1cccc(-c2cc(-c3ccccc3)cc3cnc(Nc4ccccc4)nc23)c1 [C074, N-(3-(6-phenyl-2-(phenylamino)quinazolin-8-yl)phenyl)acrylamide] | > 50 | > 50 | < 100 | > 50 | < 50 | < 50 |
| C=CC(=O)N1CCC(c2cc(-c3ccc(C(=O)Nc4cc(Cl)ccn4)cc3)n3cnccc23)C1 (stereo not shown) [C064, 4-(5-(1-acryloylpyrrolidin-3-yl)pyrrolo[1,2-c]pyrimidin-7-yl)-N-(4-chloropyridin-2-yl)benzamide] | < 50 | > 50 | < 100 |  | < 50 | < 50 |
| C=CC(=O)Nc1cccc(-c2cc(-c3ccc(C(=O)Nc4cccc(C(F)(F)F)c4)cc3)cc3cncnc23)c1 [C051, 4-(8-(3-acrylamidophenyl)quinazolin-6-yl)-N-(3-(trifluoromethyl)phenyl)benzamide] | > 50 | > 50 | < 100 | > 50 | > 50 | > 50 |
| C=CC(=O)Nc1cccc(-c2cc(-c3cccnc3)cc3cnc(Nc4ccccc4)nc23)c1 [C076, N-(3-(2-(phenylamino)-6-(pyridin-3-yl)quinazolin-8-yl)phenyl)acrylamide] | > 50 | > 50 | < 100 | > 50 | < 50 | < 50 |
| C=CC(=O)Nc1cccc(-c2cc(-c3ccccc3Cl)cc3cncnc23)c1 [C013, N-(3-(6-(2-chlorophenyl)quinazolin-8-yl)phenyl)acrylamide] | > 50 | > 50 | < 100 | > 50 | < 50 | < 50 |
| C=CC(=O)Nc1cccc(-c2cc(-c3ccccc3Cl)cc3cnc(N)nc23)c1 [C003, N-(3-(2-amino-6-(2-chlorophenyl)quinazolin-8-yl)phenyl)acrylamide] | > 50 | > 50 | < 100 | > 50 | < 50 | < 50 |
| C=CC(=O)N1CCCC(c2cc(-c3ccc(C)nc3)cc3cnc(N)nc23)C1 (stereo not shown) [C042, 1-(3-(2-amino-6-(6-methylpyridin-3-yl)quinazolin-8-yl)piperidin-1-yl)prop-2-en-1-one] | < 50 | < 50 |  | < 50 | < 50 | < 50 |
